Source: patent US11141494B2, “Development of neurokinin-1 receptor-binding agent delivery conjugates” (PURDUE RESEARCH FOUNDATION, priority 2014, dated 2021)

Columns and labels:
[1] = tested on: NKIR-transduced xenografts (HEK 293-NKIR) versus non-transduced xenografts (HEK 293-WT); test: PET imaging of 64Cu-labeled NK1R ligand conjugate in tumor xenograft mice (ROI activity, % ID/mL); format: in vivo, athymic nude mice; details: intravenous
Experimental: A NK-1 receptor-binding radionuclide delivery conjugate was prepared that contained NK1RL, a PEG2 linker, and ^64Cu-labeled chelator (radiochemical purity: 99%) with Specific Activity (SA) of 3.7 MBq/μg. Four NKIR-transduced xenografts (HEK 293-NKIR) were prepared, as well as four non-transduced xenografts (HEK 293-WT) using athymic nude mice. Doses of 140-160 uCi (˜[…]) of ligand per mouse were intravenously administered, and the models were imaged at 1, 4 and 20 hours post-injection using PET. The images were analyzed in a region of interest (ROI) around the tumor xenograft activity, and percentage injected dose per mL (% ID/mL) values were calculated from the mean activity in the ROIs. FIG. 8A is a plot showing ROI activity for the NK1R-transduced and non-transduced xenografts. […] FIG. 8B is a plot showing the ^64Cu—NK1R ligand uptake ratio between the NK1R-transduced and non-transduced xenografts in various areas at 20 hours post-injection.

[2] = in terms of human activity and metabolism; cited from earlier work

Row | Compound | accumulation in NK1R-transduced versus non-transduced xenografts (ROI activity) ([1]; PET at 1, 4 and 20 hours post-injection, HEK 293-NKIR and HEK 293-WT xenografts) | time post-injection at which the ratio between NK1R-transduced and non-transduced xenografts was highest ([1]; PET imaged at 1, 4 and 20 hours post-injection) | biological half-life [2]
1 | O=C(O)CN1CCN(CC(=O)O)CCN(CC(=O)NCCOCCOCCNC(=O)CN2CCC[C@H](OCc3cc(C(F)(F)F)cc(C(F)(F)F)c3)[C@@H]2c2ccccc2)CC1 [NK1RL-PEG2-NOTA-^64Cu conjugate, metal not drawn] | specifically accumulated in NK1R-transduced xenografts, but not in non-transduced murine model xenografts | 20 h | –
2 | [99Tc] [^99mTc, technetium-99m] | – | – | 1 day
